Assay results: paper PMC12027946, “Ionic and Non-Ionic Counterparts Based on Bis(Uracilyl)Alkane Moiety with Highest Selectivity Towards Acetylcholinesterase for Protection Against Organophosphate Poisoning and Treating Alzheimer’s Disease” (International Journal of Molecular Sciences, 2025)
Where “and” joins values, the source holds several entries; their conditions need not be identical. Equal values may be shown once.

How the values were obtained:
[1] = tested on: mice; test: Open-field test; assay type: in vivo; conditions: 2b 0.01 mg/kg, 3c 5 mg/kg, i.p.
Method: The ability of effective doses of bisuracil 2b (0.01 mg/kg) and bisuracil 3c (5 mg/kg) to induce incapacitation was evaluated. Locomotor activity, measured as the total distance travelled, and exploratory behaviour, assessed by the number of rearings (head inclinations) and head dips, were evaluated using the open-field test. Additionally, motor coordination was analysed using the rotarod test, where the ability of mice to stay on the rotating rod was recorded. The compounds were administered i.p. 30 min before testing, while the control group received an equivalent volume of the vehicle.
To analyse motor function, rotarod and open-field tests were carried out. Mice were randomly divided into 3 groups (n = 12): a control group of mice and groups of mice treated with tested compounds. Tests were conducted 1 h after compound exposure. To assess motor function, mice were first placed on a rotarod treadmill (Ugo Basile, Italy). Rotation speed was fixed at 15 rpm, and the time that each mouse remained on the rod was recorded as the score, with a maximum duration of 300 s per trial. Each mouse underwent 3 trials. After recording the length of time that mice managed to remain on the rotarod (latency to fall), the average of three trials was used for further analysis. Following the rotarod test, motor function was studied in an open field apparatus (Open Science, Krasnogorsk, Russia), as described in [39]. The numbers of rearing and head dips were estimated as indexes of exploratory activity. To assess motor function, the distance travelled in centimetres in the arena was measured, using VideoMot2 software (Version 8.02 (131) 03-07-17 (TSE Systems, Bad Homburg, Germany).

[2] = biological target: T1, human AChE (Homo sapiens, UniProt P22303); test: In vitro cholinesterase inhibition (Ellman), AChE; assay type: biochemical; conditions: Table 2; human AChE; read-out: IC50 AChE
T1 construct: purchased Sigma-Aldrich
Method: Inhibitory activities of the tested compounds against AChE and BChE were measured according to Ellman et al.. Enzyme-catalysed hydrolysis of ATCHh was carried out at 25 °C in 0.1 M phosphate buffer (pH 8.0) containing 0.25 U AChE, 1 mM ATCHh as substrates, and 0.1 mM of DTNB. In experiments with BuChE, 0.1 M phosphate buffer (pH 7.0) and BuTChh as a substrate were used. The tested compounds were pre-incubated with the enzyme for two minutes prior to the addition of the substrate and the subsequent recording of hydrolysis kinetics. […] A sample without an inhibitor was used as a control (100% cholinesterase activity). A sample without a substrate was used as a blank. Experiments were performed in triplicate.

T1 sequence (P22303 32-614): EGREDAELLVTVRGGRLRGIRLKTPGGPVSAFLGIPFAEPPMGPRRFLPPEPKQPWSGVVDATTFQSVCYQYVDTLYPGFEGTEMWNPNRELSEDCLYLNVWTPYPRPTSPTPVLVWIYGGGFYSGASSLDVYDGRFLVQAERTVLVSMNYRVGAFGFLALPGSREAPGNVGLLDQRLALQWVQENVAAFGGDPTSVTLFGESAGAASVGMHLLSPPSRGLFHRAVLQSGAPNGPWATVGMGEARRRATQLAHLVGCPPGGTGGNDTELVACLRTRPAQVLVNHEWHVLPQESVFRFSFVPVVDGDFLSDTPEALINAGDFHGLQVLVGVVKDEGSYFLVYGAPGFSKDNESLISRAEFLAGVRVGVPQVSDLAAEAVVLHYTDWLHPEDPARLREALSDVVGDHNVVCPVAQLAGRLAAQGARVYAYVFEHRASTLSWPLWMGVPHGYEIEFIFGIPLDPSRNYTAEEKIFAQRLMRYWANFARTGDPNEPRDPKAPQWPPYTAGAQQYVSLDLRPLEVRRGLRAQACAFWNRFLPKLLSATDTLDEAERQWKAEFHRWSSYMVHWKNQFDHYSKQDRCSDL

Which “distance travelled (open field) vs control group” value [1] does the source give for `CCN(CCCCCn1c(=O)ccn(CCCCCn2c(C)cc(=O)n(C)c2=O)c1=O)Cc1ccccc1C#N` [3c] here?
Its value is “no significant differences”.

What about the “number of rearings or head dips (open field)” value [1] of the same compound?
The value was “neither of the tested compounds significantly influenced”.

What about the IC50 [2] of the same compound?
Its IC50 is 2.78 nM and 2.8 nM.
